Test results taken from publication PMC11012289, “The Discovery of New Inhibitors of Insulin-Regulated Aminopeptidase by a High-Throughput Screening of 400,000 Drug-like Compounds” (International Journal of Molecular Sciences, 2024).

How the values were obtained:
[1] = target: T1, IRAP (Homo sapiens, UniProt Q9UIQ6); assay: Orthogonal absorbance IRAP assay (L-Leucine para-nitroanilide cleavage); format: biochemical; conditions: 1 mM L-Leucine p-Nitroanilide, 120 min RT; for IC50: read-out: Absorbance pIC50 (converted)
T1 construct: The screen was performed with the soluble truncated IRAP enzyme; made in house
Description: The primary biochemical assay was developed to measure the enzymatic activity of IRAP. […] To establish an orthogonal assay, an alternative L-Leucine para-nitroanilide substrate was used, which IRAP turns over to L-Leucine and para-nitroaniline and is measurable by absorbance at 405 nm (Supplementary Figure S2B).
To ensure biochemically sound, optimal, robust, and affordable assay conditions for large-scale screening, several factors need to be considered. These include the final concentration of substrates, based on the determined substrate Km value; the assay kinetics and reaction linearity; achieving a minimal, rate limiting protein concentration; identifying optimal buffer additives and concentrations; the choice of assay plate type; the final assay volume per well; the stability of reagents; the magnitude and variance of the signal; and the potency and rank order of reference compounds. For both primary fluorescence and orthogonal absorbance assays, non-binding 1536-well assay plates were used, and 0.05% BSA was included in the assay buffer to minimize the issues associated with protein sticking to plastics. The substrate Km values were determined in two separate experiments using two different batches of IRAP protein. For this, the IRAP progress curve was monitored every 5 min for 2 h using an Envision multimode plate reader (PerkinElmer, Waltham, MA, USA). […] To evaluate if using substrate concentrations close to the determined Km values results in sufficient dynamic range within the linear range of the enzymatic reaction, Z′ and S/B were calculated for multiple time points up to 2.5 h in the presence and absence of reference compounds in both assays. The primary fluorescence assay reached an optimal Z′-value after 1 h when using 37.5 μM substrate (Supplementary Figure S5). For the absorbance, 2 h was required for the enzyme reaction time; however, using ~0.4 mM substrate was associated with increased assay variation and a poor Z′ (Supplementary Figure S6).
The orthogonal assay was performed in a black non-binding 1536-well plate (Corning 3728) and sealed with universal lids (Corning 3098). First, 20 nL of test compounds (4 mM) or 100% DMSO was dispensed into the 1536-well assay plates using an Echo acoustic liquid handler (Beckman Coulter). Then, 4 μL of protein working solution (5 × 10^−4 mg/mL) was dispensed to the negative control (min effect) and compound wells (final well concentration 2.5 × 10^−4 mg/mL) using the Certus Flex liquid dispenser (Fritz Gyger AG) and 4 μL assay buffer to the positive control wells (max effect) using the FLEXdrop (PerkinElmer). Next, 4 μL of 2 mM substrate working solution was dispensed into all wells using the FLEXdrop (final well concentration 1 mM). The assay plates were then centrifuged at 187.5× g for 30 s, incubated in the dark at RT for 120 min, and finally read on an Envision plate reader (PerkinElmer) (absorbance at 405 nm, 10 flashes per second). During the dose–response curve analysis in the orthogonal assay, 80 nL of compound (range 2.00 × 10^−3 M–2.74 × 10^−6 M) or 100% DMSO was dispensed into the assay plates using an Echo acoustic liquid handler (Beckman Coulter) with final well concentration range of 20 μM–27.4 nM compound and 1% DMSO.

[2] = design: method as in ELF screening history; conditions: ref ELF screening history, cited from earlier work; for Enzyme Active: number of ELF enzyme screens in which the compound was active; for Targets active: number of ELF screens in which the compound was active; for Enzyme Active %: share of ELF enzyme targets screened; for Targets Active %: share of all ELF targets screened
[3] = target: T1, IRAP; assay: Deselection fluorescence IRAP assay with 10 µM zinc; format: biochemical; conditions: 10 µM ZnSO4 in assay buffer; for IC50: read-out: Fluorescence + Zn pIC50 (converted)
Protocol: To prepare the assay buffer (50 mM Tris-HCl pH 7.4, 150 mM NaCl, 0.1 mM PMSF, 0.05% BSA) of the primary and orthogonal assays, 1 M Tris-HCl was prepared by dissolving 60.57 g Trizma-base (Mw 121.14 g/mol) (Sigma 93362-250G) in 500 mL MQ water, and the pH was adjusted to 7.4 using 4 M HCl. The solution was filtered with a 0.45 μm filter and stored at room temperature (RT). Then, 2 M NaCl stock was prepared by dissolving 29.22 g NaCl (Mw 58.44 g/mol) (Sigma S7653-250G) in 250 mL MQ water. The solution was filtered with a 0.45 μm filter and stored at RT. Next, 100 mM Phenylmethanesulfonylfluoride (PMSF) stock was prepared by dissolving 1 g PMSF (Mw 174.19 g/mol) (Sigma 78830-1G) in 57.4 mL isopropanol (Sigma I9516-500ML) and stored at 4 °C. A 10% Bovine Serum Albumin (BSA) stock solution was prepared by dissolving 2 g BSA (Mw 66.5 kDa) (Sigma A7030-50G), which was dissolved in 20 mL MQ water. The solution was filtered with a 0.45 μm filter, aliquoted, and stored at −20 °C. For the deselection assay buffer (50 mM Tris-HCl pH 7.4, 150 mM NaCl, 0.1 mM PMSF, 0.05% BSA, 10 μM ZnSO4), 1 mM ZnSO4 solution was prepared by dissolving 28.8 mg ZnSO4 (Mw 287.56 g/mol) (Sigma Z0251-100G) in 100 mL MQ water. The solution was filtered with a 0.45 μm filter and stored at RT. For the TSA assay buffer (50 mM Tris HCL, 150 mM NaCl, pH 7.4), stocks of 1 M Tris HCL and 2 M NaCl were prepared as described above.

[4] = target: T1, IRAP; assay: Primary fluorescence IRAP assay (L-Leucine-7-amido-4-methylcoumarin cleavage); format: biochemical; conditions: for IC50 / Fluorescence pIC50: 37.5 µM L-Leucine-7-amido-4-methylcoumarin, 60 min RT, dose-response 20 µM-27.4 nM; for IC50: read-out: Fluorescence IC50; for LipE: calculated from (pIC50Fluorescence − LogD)
Description: The primary biochemical assay was developed to measure the enzymatic activity of IRAP.
To ensure biochemically sound, optimal, robust, and affordable assay conditions for large-scale screening, several factors need to be considered. […] For both primary fluorescence and orthogonal absorbance assays, non-binding 1536-well assay plates were used, and 0.05% BSA was included in the assay buffer to minimize the issues associated with protein sticking to plastics. The substrate Km values were determined in two separate experiments using two different batches of IRAP protein. For this, the IRAP progress curve was monitored every 5 min for 2 h using an Envision multimode plate reader (PerkinElmer, Waltham, MA, USA).
First, 10 nL of test compounds (4 mM) or 100% DMSO was dispensed into the 1536-well assay plates using an Echo acoustic liquid handler (Beckman Coulter, Brea, CA, USA). Then, 2 μL of protein working solution (5 × 10^−4 mg/mL) was dispensed to the negative control (min effect) and compound wells (final well concentration 2.5 × 10^−4 mg/mL) using a Certus Flex liquid dispenser (Fritz Gyger AG, Thun, Switzerland) and 2 μL assay buffer to the positive control wells (max effect) using a FLEXdrop (PerkinElmer, Waltham, MA, USA).
Figure S9. Reference compounds in Fluorescence IRAP assay with different end volumes in 1536-well format.
mg/ml) and 2 or 4 µL L -Leucine-7-amido-4-methylcoumarin (f.a.c.
Plates were measured on the Envision every 10 minutes for 140 minutes (data
shown up to 2 hours). %Effect was calculated using no protein as MAX effect (assay buffer was added instead of IRAP).

[5] = target: T1, IRAP; assay: Thermal shift (TSA) IRAP assay; format: binding; conditions: screening hits at 30 µM, 1% DMSO
Description: The Thermal shift assay (TSA) is a biophysical technique measuring protein thermal stability. The assay relies on a fluorescent dye that is quenched in an aqueous environment but fluoresces when de-solvated in non-polar environments, such as the hydrophobic pockets of proteins. The target protein is mixed with the dye and heated gradually until it becomes completely denatured; as it unfolds or melts, the dye binds to newly exposed hydrophobic regions of the protein, resulting in a significant increase in fluorescence emission detected by a PCR system. The melting temperature (Tm) is calculated from the protein melt curve, and changes in Tm (known as ΔTm) are correlated with changes in protein stability and ligand binding. […] For the TSA assay, vehicle (DMSO) or compound was dispensed into MicroAmp Endura optical qPCR plates at the desired volume using an Echo acoustic liquid handler. […] The plates were then centrifuged for 10 s at 1000 rpm and sealed with Clear PCR-compatible plate seals.

T1 sequence (Q9UIQ6 155-1025 limits assumed): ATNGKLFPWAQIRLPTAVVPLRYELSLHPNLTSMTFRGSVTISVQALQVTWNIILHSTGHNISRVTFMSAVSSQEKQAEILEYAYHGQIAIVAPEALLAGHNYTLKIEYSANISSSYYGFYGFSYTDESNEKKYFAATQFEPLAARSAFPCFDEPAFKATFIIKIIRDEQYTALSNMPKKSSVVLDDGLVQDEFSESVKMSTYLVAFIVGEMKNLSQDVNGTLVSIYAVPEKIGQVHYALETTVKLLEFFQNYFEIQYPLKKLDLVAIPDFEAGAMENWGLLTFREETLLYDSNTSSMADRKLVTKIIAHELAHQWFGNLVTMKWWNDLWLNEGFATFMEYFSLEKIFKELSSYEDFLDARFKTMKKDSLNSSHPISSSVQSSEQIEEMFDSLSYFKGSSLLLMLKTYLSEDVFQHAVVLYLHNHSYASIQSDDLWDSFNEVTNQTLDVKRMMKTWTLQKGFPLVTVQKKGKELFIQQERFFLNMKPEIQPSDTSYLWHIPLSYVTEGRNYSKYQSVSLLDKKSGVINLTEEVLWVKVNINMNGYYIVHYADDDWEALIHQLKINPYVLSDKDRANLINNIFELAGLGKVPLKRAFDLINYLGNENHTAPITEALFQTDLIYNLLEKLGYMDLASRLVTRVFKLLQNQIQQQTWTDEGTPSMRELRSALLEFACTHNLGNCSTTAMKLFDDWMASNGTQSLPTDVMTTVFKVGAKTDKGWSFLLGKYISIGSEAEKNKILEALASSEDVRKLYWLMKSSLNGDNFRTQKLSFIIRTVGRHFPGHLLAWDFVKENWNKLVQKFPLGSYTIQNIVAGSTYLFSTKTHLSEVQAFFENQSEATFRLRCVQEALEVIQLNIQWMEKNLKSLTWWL

IC50 [1] [µM]	IC50 [3] [µM]	IC50 [4] [µM]	LipE [4]	ΔTm at 30 µM [5] [°C]	Absorbance pIC50 [1]	Fluorescence + Zn pIC50 [3]	Fluorescence pIC50 [4]	TSA (∆°C), thermal shift of IRAP [5] [°C]	SMILES	Enzyme Active [2]	Targets active [2]	Enzyme Active % [2] [%]	Targets Active % [2] [%]
2.95	3.24	3.31	1.60	1.92					O=C(Cc1cc(N2CCCCCC2)nc(-c2ccc(Cl)cc2)n1)NO [QHL29]	10	14	11.8	10.2
		3.47	1.05	0	<4.70	5.38	5.46		Fc1ccc(F)c(Cn2ccc3ncccc32)c1Cl [QHL31]	5	8	5.3	5.3
> 20	6.17	3.47	3.10	0.15					CCCNc1nc(N(C)C)nc2cc(OC)c(OC)cc12 [QHL32]	1	2	2.4	2.6
		3.72	3.82		5.510	5.42	5.43	0.74	COc1cc2c(cc1-c1cnco1)C(=O)N(C)C(C)(C=Cc1ccncc1)N2 (centres unmarked) [QHL33]	4	5	4.3	3.4
		3.89	3.88		< 4.70	5.39	5.41	0.3	Nc1nc2cc(C(=O)O)ccc2n1Cc1cc(F)cc(F)c1 [QHL34]	1	2	1.3	1.4
		3.98	1.15		4.85	5.34	5.40	0	COc1cc(CN2C(Cc3ccc(S(C)(=O)=O)cc3)CCC2c2cccnc2)cc(OC)c1 (centres unmarked) [QHL35]	6	8	6.8	5.5
		4.37	1.74		< 4.70	5.36	5.36	0.15	O=C(N1CCCC1)C1(CNS(=O)(=O)c2cccc3ccccc23)CC12CCCCC2 (centres unmarked) [QHL37]	5	7	12.2	9.3

Further lines, the molecule ahead of its results:

SMILES	IC50 [1] [µM]	IC50 [3] [µM]	IC50 [4] [µM]	LipE [4]	ΔTm at 30 µM [5] [°C]	Absorbance pIC50 [1]	Fluorescence + Zn pIC50 [3]	Fluorescence pIC50 [4]	TSA (∆°C), thermal shift of IRAP [5] [°C]	Enzyme Active [2]	Targets active [2]	Enzyme Active % [2] [%]	Targets Active % [2] [%]
O=C(Cc1cc(N2CCCCC2)nc(-c2cccc(F)c2)n1)NO [QHL21]	5.62	2.82	2.95	2.57	2.66					6	9	6.9	6.3
CC(C)CC(C(=O)NO)S(=O)(=O)N1CCN(c2ccc(F)cc2)CC1 (centres unmarked) [QHL24]	3.02	5.5	3.09	3.57	4					2	2	5.4	3.5
CC(C)n1cc(C(=O)N2CCc3n[nH]c(-c4cccc(F)c4)c3CC2)cn1 [QHL25]	> 20	3.47	3.16	2.30	0					2	2	4.8	2.6
O=C(C1CCCCC1)N1CCC[C@@H]1c1cc(-c2cccnc2)on1 [QHL27]	10.7	5.13	3.24	2.14	1.48					4	5	5.0	3.4
CSc1[nH]c(-c2ccccc2)nc1S(=O)(=O)c1ccccc1 [QHL28]	15.5	5.62	3.24	1.54	0.15					4	6	4.3	4.0
